From ChEMBL document CHEMBL4130574, “Discovery of novel 2,4-diarylaminopyrimidine analogues as ALK and ROS1 dual inhibitors to overcome crizotinib-resistant mutants including G1202R” (Eur J Med Chem, 2018)

What was measured:
NCI-H460 = assay: cells; settings: Homo sapiens, NCI-H460, 72 h
Description: Antiproliferative activity against human NCI-H460 cells after 72 hrs by MTT assay

HCC78 = assay: Antiproliferative activity against human HCC78 cells harboring SLC34A2-ROS1 after 72 hrs by MTT assay; format: functional, cell-based; settings: HCC78, 72 h
NCI-H2228 = assay: cells; settings: Homo sapiens, NCI-H2228, 72 h
Description: Antiproliferative activity against human NCI-H2228 cells harboring EML4-ALK after 72 hrs by MTT assay

KARPAS-299 = assay: Antiproliferative activity against human KARPAS299 cells harboring NPM-ALK after 72 hrs by MTT assay; format: functional, cell-based; settings: KARPAS-299, 72 h
A549 = assay: cells; settings: Homo sapiens, A549, 72 h
Description: Antiproliferative activity against human A549 cells harboring EGFR after 72 hrs by MTT assay

[1] = biological target: Hepatocyte growth factor receptor (Homo sapiens, UniProt P08581); assay: Inhibition of recombinant human N-terminal GST-tagged c-MET cytoplasmic domain (956 to 1390 residues) expressed in baculovirus expression system using peptide substrate after 1 hr by mobility shift assay
Chain of Hepatocyte growth factor receptor (P08581 whole entry, the tested form may be a part): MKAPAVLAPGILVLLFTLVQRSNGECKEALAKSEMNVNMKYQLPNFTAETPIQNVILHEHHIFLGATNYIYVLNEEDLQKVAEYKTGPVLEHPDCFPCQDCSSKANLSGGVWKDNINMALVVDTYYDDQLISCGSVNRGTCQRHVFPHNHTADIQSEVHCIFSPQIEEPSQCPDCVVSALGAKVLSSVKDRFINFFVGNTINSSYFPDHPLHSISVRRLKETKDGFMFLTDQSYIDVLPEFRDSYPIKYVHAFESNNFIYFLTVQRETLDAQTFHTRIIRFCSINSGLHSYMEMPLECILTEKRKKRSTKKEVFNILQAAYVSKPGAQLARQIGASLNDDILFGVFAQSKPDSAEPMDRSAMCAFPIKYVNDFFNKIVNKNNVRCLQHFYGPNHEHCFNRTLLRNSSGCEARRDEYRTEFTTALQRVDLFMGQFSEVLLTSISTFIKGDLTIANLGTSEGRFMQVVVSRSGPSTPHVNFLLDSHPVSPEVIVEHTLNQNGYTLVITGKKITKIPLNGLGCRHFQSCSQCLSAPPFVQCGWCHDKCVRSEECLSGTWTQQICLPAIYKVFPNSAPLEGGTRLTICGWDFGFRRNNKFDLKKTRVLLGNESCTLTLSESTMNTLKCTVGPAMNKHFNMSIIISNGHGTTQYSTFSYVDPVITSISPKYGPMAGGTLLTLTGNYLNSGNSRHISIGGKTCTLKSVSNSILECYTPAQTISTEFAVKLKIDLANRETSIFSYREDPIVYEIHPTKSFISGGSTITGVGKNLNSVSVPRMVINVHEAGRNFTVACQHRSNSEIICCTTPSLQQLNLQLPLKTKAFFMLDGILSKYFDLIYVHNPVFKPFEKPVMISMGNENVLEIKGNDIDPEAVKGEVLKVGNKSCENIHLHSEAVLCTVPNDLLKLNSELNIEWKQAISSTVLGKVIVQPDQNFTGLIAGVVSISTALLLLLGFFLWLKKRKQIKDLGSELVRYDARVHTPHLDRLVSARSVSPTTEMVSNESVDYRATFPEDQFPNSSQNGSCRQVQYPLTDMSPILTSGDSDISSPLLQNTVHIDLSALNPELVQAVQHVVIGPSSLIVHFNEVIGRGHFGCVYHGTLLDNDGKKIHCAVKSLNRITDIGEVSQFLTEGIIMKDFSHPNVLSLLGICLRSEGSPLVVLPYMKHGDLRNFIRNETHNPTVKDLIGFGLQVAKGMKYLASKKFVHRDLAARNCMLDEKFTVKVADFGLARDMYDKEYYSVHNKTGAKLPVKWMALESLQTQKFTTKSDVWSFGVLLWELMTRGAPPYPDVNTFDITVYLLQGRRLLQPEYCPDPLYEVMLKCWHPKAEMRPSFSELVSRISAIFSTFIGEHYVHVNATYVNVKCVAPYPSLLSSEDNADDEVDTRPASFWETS

[2] = biological target: ALK tyrosine kinase receptor (Homo sapiens, UniProt Q9UM73)
Description: Inhibition of recombinant human N-terminal GST-tagged ALK cytoplasmic domain (1058 to 1620 residues) expressed in baculovirus expression system using peptide substrate after 1 hr by mobility shift assay

[3] = Selectivity ratio of IC50 for human HCC78 cells harboring SLC34A2-ROS1 to IC50 for human NCI-H2228 cells harboring EML4-ALK; format: functional
[4] = biological target: Epidermal growth factor receptor (Homo sapiens, UniProt P00533)
Chain of Epidermal growth factor receptor (P00533 whole entry, the tested form may be a part): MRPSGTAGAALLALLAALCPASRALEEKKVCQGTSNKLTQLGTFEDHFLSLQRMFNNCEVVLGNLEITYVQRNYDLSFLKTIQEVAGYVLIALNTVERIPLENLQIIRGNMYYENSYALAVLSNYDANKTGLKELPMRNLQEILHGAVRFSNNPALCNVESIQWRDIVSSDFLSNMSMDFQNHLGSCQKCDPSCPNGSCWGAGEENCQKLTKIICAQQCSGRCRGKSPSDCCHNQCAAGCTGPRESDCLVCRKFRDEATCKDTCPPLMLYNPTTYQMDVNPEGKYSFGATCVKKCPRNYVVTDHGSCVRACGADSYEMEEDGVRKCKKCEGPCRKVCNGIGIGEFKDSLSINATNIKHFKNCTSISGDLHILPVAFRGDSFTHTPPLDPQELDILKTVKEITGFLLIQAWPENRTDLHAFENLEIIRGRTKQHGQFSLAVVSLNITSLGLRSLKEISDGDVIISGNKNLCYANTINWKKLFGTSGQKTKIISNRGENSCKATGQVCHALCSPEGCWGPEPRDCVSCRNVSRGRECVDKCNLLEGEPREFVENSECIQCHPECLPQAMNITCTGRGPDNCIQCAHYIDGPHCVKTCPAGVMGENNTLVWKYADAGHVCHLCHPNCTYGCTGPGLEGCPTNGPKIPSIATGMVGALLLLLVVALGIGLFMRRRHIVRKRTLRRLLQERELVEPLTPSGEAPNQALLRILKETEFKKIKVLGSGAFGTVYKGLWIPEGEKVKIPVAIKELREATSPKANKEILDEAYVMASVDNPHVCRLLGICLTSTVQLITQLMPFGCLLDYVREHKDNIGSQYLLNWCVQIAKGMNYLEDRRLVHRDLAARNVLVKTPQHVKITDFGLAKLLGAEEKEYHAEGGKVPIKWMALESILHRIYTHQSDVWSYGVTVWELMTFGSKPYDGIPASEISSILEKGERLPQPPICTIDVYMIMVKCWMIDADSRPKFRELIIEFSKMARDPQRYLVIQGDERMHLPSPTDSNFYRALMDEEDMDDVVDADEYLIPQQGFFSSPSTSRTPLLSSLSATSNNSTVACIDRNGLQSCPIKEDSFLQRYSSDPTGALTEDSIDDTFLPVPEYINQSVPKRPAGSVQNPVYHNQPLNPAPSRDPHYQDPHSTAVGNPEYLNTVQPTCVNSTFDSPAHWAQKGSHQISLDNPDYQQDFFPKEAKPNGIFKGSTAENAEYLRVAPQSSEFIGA
Description: Inhibition of recombinant human N-terminal GST-tagged EGFR cytoplasmic domain (669 to 1210 residues) expressed in baculovirus expression system using peptide substrate after 1 hr by mobility shift assay

[5] = biological target: Proto-oncogene tyrosine-protein kinase ROS (Homo sapiens, UniProt P08922); assay: Inhibition of recombinant human N-terminal GST-tagged ROS1 cytoplasmic domain (1883 to 2347 residues) expressed in baculovirus expression system using peptide substrate after 1 hr by mobility shift assay
Chain of Proto-oncogene tyrosine-protein kinase ROS (P08922 whole entry, the tested form may be a part): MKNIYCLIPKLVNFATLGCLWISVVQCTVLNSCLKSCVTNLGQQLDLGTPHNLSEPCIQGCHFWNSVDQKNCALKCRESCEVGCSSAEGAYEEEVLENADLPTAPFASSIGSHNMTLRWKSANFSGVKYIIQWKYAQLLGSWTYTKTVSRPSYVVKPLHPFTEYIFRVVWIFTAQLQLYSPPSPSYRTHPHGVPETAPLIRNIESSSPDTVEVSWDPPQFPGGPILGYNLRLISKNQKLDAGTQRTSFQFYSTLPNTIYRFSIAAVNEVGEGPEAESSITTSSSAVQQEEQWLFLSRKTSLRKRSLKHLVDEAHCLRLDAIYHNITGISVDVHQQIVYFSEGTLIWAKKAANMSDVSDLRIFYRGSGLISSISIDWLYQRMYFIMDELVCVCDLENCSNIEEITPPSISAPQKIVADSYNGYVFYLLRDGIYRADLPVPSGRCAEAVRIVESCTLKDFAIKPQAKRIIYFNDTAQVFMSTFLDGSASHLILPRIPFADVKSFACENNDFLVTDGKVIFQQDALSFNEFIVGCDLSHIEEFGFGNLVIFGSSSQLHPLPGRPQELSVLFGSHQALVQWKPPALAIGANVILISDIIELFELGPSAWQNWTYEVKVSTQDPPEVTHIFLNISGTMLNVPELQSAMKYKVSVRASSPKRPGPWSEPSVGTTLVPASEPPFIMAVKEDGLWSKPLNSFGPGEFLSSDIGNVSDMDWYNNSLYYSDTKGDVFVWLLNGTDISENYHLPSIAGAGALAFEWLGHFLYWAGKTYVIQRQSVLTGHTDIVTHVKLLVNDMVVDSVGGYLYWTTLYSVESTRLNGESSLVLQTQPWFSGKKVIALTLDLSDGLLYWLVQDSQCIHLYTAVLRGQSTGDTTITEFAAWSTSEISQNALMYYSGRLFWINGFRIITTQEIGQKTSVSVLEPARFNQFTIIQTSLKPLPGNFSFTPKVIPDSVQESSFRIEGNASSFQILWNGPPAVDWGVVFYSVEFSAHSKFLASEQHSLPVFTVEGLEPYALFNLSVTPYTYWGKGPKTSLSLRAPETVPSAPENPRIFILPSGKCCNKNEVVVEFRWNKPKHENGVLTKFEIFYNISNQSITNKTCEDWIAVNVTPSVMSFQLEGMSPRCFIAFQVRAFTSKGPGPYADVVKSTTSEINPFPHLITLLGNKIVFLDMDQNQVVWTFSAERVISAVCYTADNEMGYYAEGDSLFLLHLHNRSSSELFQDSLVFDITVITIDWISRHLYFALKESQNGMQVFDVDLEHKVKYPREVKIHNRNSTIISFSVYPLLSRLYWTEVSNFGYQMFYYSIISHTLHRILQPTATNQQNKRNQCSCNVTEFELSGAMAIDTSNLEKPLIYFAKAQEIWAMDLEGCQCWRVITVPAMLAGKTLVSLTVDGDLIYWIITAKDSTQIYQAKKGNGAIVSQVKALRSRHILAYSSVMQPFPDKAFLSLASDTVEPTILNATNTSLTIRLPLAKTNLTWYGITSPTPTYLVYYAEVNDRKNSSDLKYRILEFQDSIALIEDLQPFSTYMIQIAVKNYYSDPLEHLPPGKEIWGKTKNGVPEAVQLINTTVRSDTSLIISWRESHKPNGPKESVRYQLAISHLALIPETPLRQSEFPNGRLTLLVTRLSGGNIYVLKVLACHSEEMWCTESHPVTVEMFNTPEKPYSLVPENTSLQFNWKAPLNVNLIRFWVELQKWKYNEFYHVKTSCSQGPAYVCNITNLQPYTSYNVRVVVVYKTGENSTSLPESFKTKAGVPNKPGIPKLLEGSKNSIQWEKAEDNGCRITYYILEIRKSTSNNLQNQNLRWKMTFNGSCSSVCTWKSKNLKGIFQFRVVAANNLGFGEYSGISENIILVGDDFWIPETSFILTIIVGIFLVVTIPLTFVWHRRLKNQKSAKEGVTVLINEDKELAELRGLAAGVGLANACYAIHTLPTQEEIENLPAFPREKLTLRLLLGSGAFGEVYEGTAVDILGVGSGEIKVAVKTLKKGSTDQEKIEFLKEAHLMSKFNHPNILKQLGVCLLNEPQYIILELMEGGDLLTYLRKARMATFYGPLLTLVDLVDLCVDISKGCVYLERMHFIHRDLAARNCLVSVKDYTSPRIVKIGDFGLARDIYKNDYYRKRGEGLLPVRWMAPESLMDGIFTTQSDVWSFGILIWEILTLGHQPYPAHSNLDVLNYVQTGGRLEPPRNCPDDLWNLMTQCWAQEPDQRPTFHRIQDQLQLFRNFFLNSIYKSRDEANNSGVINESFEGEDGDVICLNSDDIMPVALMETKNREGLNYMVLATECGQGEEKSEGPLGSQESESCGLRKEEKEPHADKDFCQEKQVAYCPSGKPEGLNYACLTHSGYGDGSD

[6] = Selectivity ratio of IC50 for human HCC78 cells harboring SLC34A2-ROS1 to IC50 for human KARPAS299 cells harboring NPM-ALK; format: functional

SMILES	IC50 (NCI-H460) [nM]	IC50 (HCC78) [nM]	IC50 (NCI-H2228) [nM]	IC50 (KARPAS-299) [nM]	IC50 (A549) [nM]	IC50 [1] [nM]	IC50 [2] [nM]	Ratio IC50 [3]	IC50 [4] [nM]	IC50 [5] [nM]	Ratio IC50 [6]
CC1CCN(Cc2csc(-c3ccc(Nc4ncc(Cl)c(Nc5ccccc5S(=O)(=O)C(C)C)n4)c(OC(C)C)c3)n2)CC1	> 1000	> 1000	280	240	> 1000						
CC(C)Oc1cc(-c2nc(CN3CCCC3)cs2)ccc1Nc1ncc(Cl)c(Nc2ccccc2S(=O)(=O)C(C)C)n1	> 1000	> 1000	350	190	> 1000						
COc1cc(-n2cc(CN3CCCC3)nn2)ccc1Nc1ncc(Cl)c(Nc2ccccc2S(=O)(=O)C(C)C)n1	> 1000	270	410	380	> 1000						
COc1cc(-n2cc(CN(C)C)nn2)ccc1Nc1ncc(Cl)c(Nc2ccccc2S(=O)(=O)C(C)C)n1	> 1000	380	480	> 1000	> 1000						
CC(C)Oc1cc(-c2nc(CN3CCOCC3)cs2)ccc1Nc1ncc(Cl)c(Nc2ccccc2S(=O)(=O)C(C)C)n1	690	> 1000	350	140	> 1000						
CC(C)Oc1cc(-c2nc(CN3CCC[C@H]3CO)cs2)ccc1Nc1ncc(Cl)c(Nc2ccccc2S(=O)(=O)C(C)C)n1	> 1000	> 1000	300	200	850						
COc1cc(-c2nc(CN3CCCC3)cs2)ccc1Nc1ncc(Cl)c(Nc2ccccc2S(=O)(=O)C(C)C)n1	> 1000	780	340	140	> 1000						
COc1cc(-n2cc(CNO)nn2)ccc1Nc1ncc(Cl)c(Nc2ccccc2S(=O)(=O)C(C)C)n1	> 1000	> 1000	> 1000	820	> 1000						
CC(C)Oc1cc(-c2nc(CNC3CC3)cs2)ccc1Nc1ncc(Cl)c(Nc2ccccc2S(=O)(=O)C(C)C)n1	> 1000	> 1000	370	240	> 1000						
COc1cc(-c2nc(CN3CCN(C)CC3)cs2)ccc1Nc1ncc(Cl)c(Nc2ccccc2S(=O)(=O)C(C)C)n1	870	93	98	22	> 1000	820	2.3	2.3	> 1000	9.8	2.3
COc1cc(-n2cc(CN3CCCCC3)nn2)ccc1Nc1ncc(Cl)c(Nc2ccccc2S(=O)(=O)C(C)C)n1	970	180	200	130	> 1000						
COc1cc(-n2cc(CN3CCNCC3)nn2)ccc1Nc1ncc(Cl)c(Nc2ccccc2S(=O)(=O)C(C)C)n1	> 1000	81	87	35	> 1000	> 1000	4.3		890	8	
CC(C)Oc1cc(-c2nc(CN3CCCCC3)cs2)ccc1Nc1ncc(Cl)c(Nc2ccccc2S(=O)(=O)C(C)C)n1	> 1000	> 1000	230	120	> 1000						
COc1cc(-n2cc(CN3CCN(C(C)=O)CC3)nn2)ccc1Nc1ncc(Cl)c(Nc2ccccc2S(=O)(=O)C(C)C)n1	> 1000	350	310	280	> 1000						
COc1cc(-n2cc(CN3CCC[C@H]3CO)nn2)ccc1Nc1ncc(Cl)c(Nc2ccccc2S(=O)(=O)C(C)C)n1	> 1000	520	380	320	910						
Cc1cc(Nc2ncc(Cl)c(Nc3ccccc3S(=O)(=O)C(C)C)n2)c(OC(C)C)cc1C1CCNCC1 [CERITINIB]	> 1000		99		> 1000						
COc1cc(-c2nc(CNCCO)cs2)ccc1Nc1ncc(Cl)c(Nc2ccccc2S(=O)(=O)C(C)C)n1	> 1000	330	300	230	> 1000						
COc1cc(-n2cc(CN3CCC(C)CC3)nn2)ccc1Nc1ncc(Cl)c(Nc2ccccc2S(=O)(=O)C(C)C)n1	> 1000	320	190	250	> 1000	703	3.9		> 1000	4.6	
COc1cc(-n2cc(CN3C[C@@H](C)N[C@@H](C)C3)nn2)ccc1Nc1ncc(Cl)c(Nc2ccccc2S(=O)(=O)C(C)C)n1	880	96	80	37	> 1000	731	3		865	3	
COc1cc(-n2cc(CN3CCN(S(C)(=O)=O)CC3)nn2)ccc1Nc1ncc(Cl)c(Nc2ccccc2S(=O)(=O)C(C)C)n1	> 1000	520	290	140	700						
CC(C)Oc1cc(-c2nc(CNCCO)cs2)ccc1Nc1ncc(Cl)c(Nc2ccccc2S(=O)(=O)C(C)C)n1	> 1000	> 1000	350	190	> 1000						
CCN(CC)Cc1cn(-c2ccc(Nc3ncc(Cl)c(Nc4ccccc4S(=O)(=O)C(C)C)n3)c(OC)c2)nn1	> 1000	> 1000	> 1000	500	> 1000						
COc1cc(-n2cc(CN3CCOCC3)nn2)ccc1Nc1ncc(Cl)c(Nc2ccccc2S(=O)(=O)C(C)C)n1	> 1000	240	150	180	> 1000						
COc1cc(-c2nc(CN3CCC[C@H]3CO)cs2)ccc1Nc1ncc(Cl)c(Nc2ccccc2S(=O)(=O)C(C)C)n1	> 1000	470	230	160	> 1000						
COc1cc(-c2nc(CN3CCOCC3)cs2)ccc1Nc1ncc(Cl)c(Nc2ccccc2S(=O)(=O)C(C)C)n1	> 1000	490	130	150	> 1000						
COc1cc(-c2nc(CN3CCC(C)CC3)cs2)ccc1Nc1ncc(Cl)c(Nc2ccccc2S(=O)(=O)C(C)C)n1	> 1000	380	230	190	800	967	3		> 1000	8.5	
CCN(CC)Cc1csc(-c2ccc(Nc3ncc(Cl)c(Nc4ccccc4S(=O)(=O)C(C)C)n3)c(OC(C)C)c2)n1	750	920	500	320	> 1000						
COc1cc(-c2nc(CN3CCCCC3)cs2)ccc1Nc1ncc(Cl)c(Nc2ccccc2S(=O)(=O)C(C)C)n1	> 1000	430	180	100	> 1000						
CC(C)Oc1cc(-c2nc(CN3CCN(C)CC3)cs2)ccc1Nc1ncc(Cl)c(Nc2ccccc2S(=O)(=O)C(C)C)n1	> 1000	810	99	28	> 1000	> 1000	3.4		> 1000	19.3	
CC(C)Oc1cc(-c2nc(CN3CCN(CCO)CC3)cs2)ccc1Nc1ncc(Cl)c(Nc2ccccc2S(=O)(=O)C(C)C)n1	> 1000	580	89	22	> 1000	> 1000	4		> 1000	13.4	
